Legend:
rice = assay: Test Example 2: soil application on the day after sowing, growth inhibition rate, rice; assay type: in vivo, Oryza sativa L.; settings: 250 g/ha active ingredient, observed on 19th to 24th day
Text: (§1) Upland field soil was put into a 1/170,000 hectare pot, and seeds of various plants (barnyardgrass, crabgrass, greenfoxtail, redroot pigweed, prickly sida, velvetleaf, rice, wheat, corn and soybean) were sown. On the day after sowing, wettable powders or emulsifiable concentrates of the compounds of the present invention prepared in accordance with a conventional preparation method, were weighed so that the active ingredients became the prescribed amounts, and diluted with water in an amount corresponding to 500 liter per 1 hectare, followed by soil application with a small sprayer. On the 19th to 24th day after the application, the state of growth of the respective plants was visually observed, and the herbicidal effect was evaluated in accordance with a growth inhibition rate (%) of from 0 (equivalent to the non-treated area) to 100% (complete kill).

barnyardgrass = assay: Test Example 2: soil application on the day after sowing, growth inhibition rate, barnyardgrass; assay type: in vivo, Echinochloa crus-galli L.; settings: 250 g/ha active ingredient, observed on 19th to 24th day
Text: as §1

greenfoxtail = assay: Test Example 2: soil application on the day after sowing, growth inhibition rate, greenfoxtail; assay type: in vivo, Setaria viridis L.; settings: 250 g/ha active ingredient, observed on 19th to 24th day
Text: as §1

[1] = system: soybean (Glycine max Merr.); assay: Test Example 1: foliar treatment, growth inhibition rate, soybean; assay type: in vivo; settings: visually observed 17th to 23rd day after application
Text: (§2) Upland field soil was put into a 1/170,000 hectare pot, and seeds of various plants were sown. When the respective plants reached predetermined leaf stage ((1) barnyardgrass (Echinochloa crus-galli L.); 0.8 to 2.5 leaf stage, (2) crabgrass (Digitaria sanguinalis L.): 0.5 to 3.0 leaf stage, (3) greenfoxtail (Setaria viridis L.): 1.0 to 3.0 leaf stage, (4) redroot pigweed (Amaranthus retroflexus L.): cotyledon stage to 2.0 leaf stage, (5) prickly sida (Sida spinosa L.): cotyledon stage to 1.1 leaf stage, (6) velvetleaf (Abutilon theophrasti MEDIC.): cotyledon stage to 1.5 leaf stage, (7) rice (Oryza sativa L.): 1.0 to 2.5 leaf stage, (8) wheat (Triticum spp.): 1.7 to 3.4 leaf stage, (9) corn (Zea mays L.): 2.0 to 3.5 leaf stage, and (10) soybean (Glycine max Merr.): primary leaf stage to 0.3 leaf stage), wettable powders or emulsifiable concentrates of the compounds of the present invention prepared in accordance with a conventional preparation method, were weighed so that the active ingredients became the prescribed amounts, and diluted with water in an amount corresponding to 500 liter per 1 hectare. 0.1 vol % of an agricultural spreader was further added to the respective diluted liquids, followed by foliar treatment with a small sprayer.
(§3) On the 17th to 23rd day after application, the state of growth of the respective plants was visually observed, and the herbicidal effect was evaluated in accordance with a growth inhibition rate (%) of 0 (equivalent to the non-treated area) to 100% (complete kill).

[2] = system: greenfoxtail (Setaria viridis L.); assay: Test Example 1: foliar treatment, growth inhibition rate, greenfoxtail; assay type: in vivo; settings: visually observed 17th to 23rd day after application
Text: as §2, §3

crabgrass = assay: Test Example 2: soil application on the day after sowing, growth inhibition rate, crabgrass; assay type: in vivo, Digitaria sanguinalis L.; settings: 250 g/ha active ingredient, observed on 19th to 24th day
Text: as §1

corn = assay: Test Example 2: soil application on the day after sowing, growth inhibition rate, corn; assay type: in vivo, Zea mays L.; settings: 250 g/ha active ingredient, observed on 19th to 24th day
Text: as §1

[3] = system: prickly sida (Sida spinosa L.); assay: Test Example 1: foliar treatment, growth inhibition rate, prickly sida; assay type: in vivo; settings: visually observed 17th to 23rd day after application
Text: as §2, §3

prickly sida = assay: Test Example 2: soil application on the day after sowing, growth inhibition rate, prickly sida; assay type: in vivo, Sida spinosa L.; settings: 250 g/ha active ingredient, observed on 19th to 24th day
Text: as §1

corn (Zea mays L.) = assay: Test Example 1: foliar treatment, growth inhibition rate, corn; assay type: in vivo; settings: visually observed 17th to 23rd day after application
Text: as §2, §3

rice (Oryza sativa L.) = assay: Test Example 1: foliar treatment, growth inhibition rate, rice; assay type: in vivo; settings: visually observed 17th to 23rd day after application
Text: as §2, §3

[4] = system: crabgrass (Digitaria sanguinalis L.); assay: Test Example 1: foliar treatment, growth inhibition rate, crabgrass; assay type: in vivo; settings: visually observed 17th to 23rd day after application
Text: as §2, §3

[5] = system: velvetleaf (Abutilon theophrasti MEDIC.); assay: Test Example 1: foliar treatment, growth inhibition rate, velvetleaf; assay type: in vivo; settings: visually observed 17th to 23rd day after application
Text: as §2, §3

soybean = assay: Test Example 2: soil application on the day after sowing, growth inhibition rate, soybean; assay type: in vivo, Glycine max Merr.; settings: 250 g/ha active ingredient, observed on 19th to 24th day
Text: as §1

velvetleaf = assay: Test Example 2: soil application on the day after sowing, growth inhibition rate, velvetleaf; assay type: in vivo, Abutilon theophrasti MEDIC.; settings: 250 g/ha active ingredient, observed on 19th to 24th day
Text: as §1

[6] = system: redroot pigweed (Amaranthus retroflexus L.); assay: Test Example 1: foliar treatment, growth inhibition rate, redroot pigweed; assay type: in vivo; settings: visually observed 17th to 23rd day after application
Text: as §2, §3

wheat (Triticum spp.) = assay: Test Example 1: foliar treatment, growth inhibition rate, wheat; assay type: in vivo; settings: visually observed 17th to 23rd day after application
Text: as §2, §3

[7] = system: barnyardgrass (Echinochloa crus-galli L.); assay: Test Example 1: foliar treatment, growth inhibition rate, barnyardgrass; assay type: in vivo; settings: visually observed 17th to 23rd day after application
Text: as §2, §3

redroot pigweed = assay: Test Example 2: soil application on the day after sowing, growth inhibition rate, redroot pigweed; assay type: in vivo, Amaranthus retroflexus L.; settings: 250 g/ha active ingredient, observed on 19th to 24th day
Text: as §1

| Structure (SMILES) | Growth inhibition rate (%) Rice (rice) | Growth inhibition rate (%) Barnyardgrass (barnyardgrass) | Growth inhibition rate (%) Greenfoxtail (greenfoxtail) | Growth inhibition rate (%) Crabgrass (crabgrass) | Growth inhibition rate (%) Corn (corn) | Growth inhibition rate (%) Prickly sida (prickly sida) | Growth inhibition rate (%) Soybean (soybean) | Growth inhibition rate (%) Velvetleaf (velvetleaf) | Growth inhibition rate (%) redroot pigweed (redroot pigweed) | Growth inhibition rate (%) Soybean ([1]; 31 g/ha active ingredient) | Growth inhibition rate (%) Greenfoxtail ([2]; 31 g/ha active ingredient) | Growth inhibition rate (%) Prickly sida ([3]; 31 g/ha active ingredient) | Growth inhibition rate (%) Corn (corn (Zea mays L.); 31 g/ha active ingredient) | Growth inhibition rate (%) Rice (rice (Oryza sativa L.); 31 g/ha active ingredient) | Growth inhibition rate (%) Crabgrass ([4]; 31 g/ha active ingredient) | Growth inhibition rate (%) Velvetleaf ([5]; 31 g/ha active ingredient) | Growth inhibition rate (%) Wheat (wheat (Triticum spp.); 31 g/ha active ingredient) | Growth inhibition rate (%) Barnyardgrass ([7]; 31 g/ha active ingredient) | Growth inhibition rate (%) redroot pigweed ([6]; 31 g/ha active ingredient) | further results |
| --- | --- | --- | --- | --- | --- | --- | --- | --- | --- | --- | --- | --- | --- | --- | --- | --- | --- | --- | --- | --- |
| CCSC(=O)Oc1c(C(=O)c2ccc(S(C)(=O)=O)c(CSC#N)c2C)cnn1C [compound 231] | 0% | 70% | 0% | 60% | 0% | 0% | 0% | 0% | 50% |  |  |  |  |  |  |  |  |  |  | Growth inhibition rate (%) Soybean ([1]; 63 g/ha active ingredient): 100%; Growth inhibition rate (%) Greenfoxtail ([2]; 63 g/ha active ingredient): 40%; Growth inhibition rate (%) Prickly sida ([3]; 63 g/ha active ingredient): 40%; Growth inhibition rate (%) Corn (corn (Zea mays L.); 63 g/ha active ingredient): 0%; Growth inhibition rate (%) Rice (rice (Oryza sativa L.); 63 g/ha active ingredient): 50%; Growth inhibition rate (%) Crabgrass ([4]; 63 g/ha active ingredient): 70%; Growth inhibition rate (%) Velvetleaf ([5]; 63 g/ha active ingredient): 80%; Growth inhibition rate (%) redroot pigweed ([6]; 63 g/ha active ingredient): 80%; Growth inhibition rate (%) Wheat (wheat (Triticum spp.); 63 g/ha active ingredient): 0%; Growth inhibition rate (%) Barnyardgrass ([7]; 63 g/ha active ingredient): 100% |
| COCCOc1c(S(C)(=O)=O)ccc(C(=O)c2cnn(C)c2OC(=O)SC)c1C [compound 233] | 100% | 100% | 100% | 100% | 0% | 40% | 50% | 100% | 100% | 100% | 100% | 60% | 0% | 80% | 100% | 100% | 0% | 100% |  |  |
| CCSC(=O)Oc1c(C(=O)c2ccc(S(C)(=O)=O)c(OCCCl)c2C)cnn1C [compound 78] |  |  |  | 95% | 0% |  |  | 50% | 80% | 70% | 60% | 60% | 0% | 10% | 70% | 65% | 0% | 60% | 60% |  |
| CCSC(=O)Oc1c(C(=O)c2ccc(S(C)(=O)=O)c(CCOC)c2C)cnn1C [compound 75] |  |  |  | 100% | 10% |  |  | 80% | 100% | 98% | 100% | 100% | 40% | 98% | 100% | 100% | 0% | 98% | 100% |  |
| CCSC(=O)Oc1c(C(=O)c2ccc(S(C)(=O)=O)c(OCC(F)(F)F)c2C)cnn1C [compound 79] |  |  |  | 90% | 0% |  |  | 50% | 90% | 100% | 98% | 75% | 50% | 60% | 100% | 98% | 0% | 100% | 100% |  |
